The text below walks through data of patent US8822541B2, “Use of targeted nitroxide agents in mitigating or treating radiation injury” (University of Pittsburgh—Of the Commonwealth System of …, priority 2008, dated 2014).

Structures are written as SMILES.

The test system of one test is 32D cl 3 cells. As to the kind of experiment: Clonogenic radiation survival curves of 32D cl 3 cells (PLDR study). Format: cell-based, mouse. On the set-up: key to D0: D0 in Gy, from single-hit multitarget model. The protocol:
32D cl 3 cells were resuspended at 1×10^5 cells/mL in 10×100-mm tubes and divided into three groups: radiation only, post-irradiation treatment with 10 μM JP4-039, and post-irradiation treatment with 10 μM TEMPO. Cells were irradiated to doses ranging from 0 to 8 Gy and were plated immediately after irradiation.
32D cl 3 cells were resuspended at 5×10^5 cells/mL in 10×100-mm tubes and divided into three groups: radiation only, post-irradiation treatment with 10 μM JP4-039, and post-irradiation treatment with 10 μM TEMPO. Cells were irradiated to doses ranging from 0 to 8 Gy and were then incubated in exponentially growing colonies (flasks) for 24, 48 and 72 h in a high-humidity incubator at 37° C. with 95% air/5% CO2.
32D cl 3 cells were resuspended at 5×10^5 cells/mL in 10×100-mm tubes. Cells were irradiated to doses ranging from 0 to 8 Gy and were then centrifuged at 1500 RPM for 10 minutes and incubated in vertical tubes held tight in pellets with a total of 5×10^5 cells/pellet for 24, 48 and 72 h in a high-humidity incubator at 37° C. with 95% air/5% CO2.
Cells incubated under either logarithmic or PLDR conditions were resuspended at 24, 48 and 72 h after irradiation, and cell viability was assessed using an automated cell viability counter (Beckman Coulter, Fullerton, Calif.). Subsequently, at 24, 48, 72 h, cells in pellets and flasks were resuspended and treated with 10 μM JP4-039, 10 μM TEMPO, or no treatment and were plated in triplicate in semisolid methylcellulose-containing medium at viable cell concentrations ranging from 500-40,000 cells/mL. Cells were incubated in a high-humidity incubator at 37° C. with 95% air/5% CO2 for 7 d and colonies of greater than 50 cells were scored according to published methods (Epperly M W, Gretton J E, Sikora C A, Jefferson M, Bernarding M, Nie S, et al.: Mitochondrial localization of superoxide, dismutase is required for decreasing radiation-induced cellular damage. Radiat Res. 160: 568-578, 2003).
Data from radiation survival curves were analyzed using the linear-quadratic and single-hit, multitarget models (Epperly M, et al., Prevention of late effects of irradiation lung damage by manganese superoxide dismutase gene therapy. Gene Ther. 5: 196-208, 1998). Results are presented as the mean±standard error of the mean from at least three measurements. Student's t test and two-way ANOVA were used to compare means of different groups where appropriate.

The next test concerns Sprague Dawley rats. Put plainly: Survival of rats subjected to volume-controlled hemorrhagic shock. The test is classed as in vivo, rat. Particulars: 2 μmol/kg iv. How it is done: Survival of rats subjected to volume-controlled hemorrhagic shock. Following surgical preparation and a 5-min stabilization period to obtain baseline readings, rats were subjected to hemorrhagic shock. Bleeding was carried out in 2 phases.
Initially, 21 ml/kg of blood was withdrawn over 20 min. Immediately thereafter, an additional 12.5 ml/kg of blood was withdrawn over 40 min. Thus, hemorrhage occurred over a total period of 60 min and the total blood loss was 33.5 ml/kg or approximately 55% of the total blood volume. Rats were randomly assigned to receive XJB-5-131 (2 μmol/kg) or its vehicle, a 33:67 (v/v) mixture of DMSO and normal saline. XJB-5-131 solution or vehicle alone was administered as a continuous infusion during the last 20 min of the hemorrhage period. The total volume of fluid infused was 2.8 ml/kg and it was administered intravenously using a syringe pump (KD100, KD Scientific, New Hope, Pa.). […] At the end of the 6 hour observation period, animals that were still alive were euthanized with an overdose of KCl.
Blood pressure was recorded continuously using a commercial strain-gauge transducer, amplifier, and monitor (S90603a, SpaceLabs, Redmond, Wash.). Blood samples (0.5 ml) were collected from the jugular vein at the beginning of hemorrhage (baseline), at the end of hemorrhage (shock) and at the end of resuscitation (resuscitation). Hemoglobin concentration [Hb], lactate and glucose concentration were determined using an auto-analyzer (Model ABL 725, Radiometer Copenhagen, Westlake, Ohio).
A total of sixteen rats were tested in this study. Rats were treated with 2.8 ml/kg of vehicle or the same volume of XJB-5-131 solution during the final 20 min of the bleeding protocol. The total dose of XJB-5-131 infused was 2 μmol/kg. Following profound hemorrhagic shock consistent with the protocol described above for the prior studies, thirteen survived for at least 60 min and received the full dose of either XJB-5-131 solution or the vehicle, a 33:67 (v/v) mixture of DMSO and normal saline. […] None of the between-group differences were statistically significant.

The mark [1] stands for this setting: 0 hours, 10 μM post-irradiation.

Take `CC(C)C[C@@H](/C=C/CC(=O)NC1CC(C)(C)N([O])C(C)(C)C1)NC(=O)OC(C)(C)C` [JP4-039, TEMPO-4-yl-(S,E)-5-(tert-butoxycarbonylamino)-7-methyloct-3-enamide]: the D0 with 32D cl 3 cells (setting [1]) is on record as 0.91 ± 0.11; in the test on 32D cl 3 cells (24 hours (Flask), 10 μM), 1.22 ± 0.16; in the test on 32D cl 3 cells (24 hours (Pellet), 10 μM), 1.12 ± 0.27. The Ñ worked out at 37.43±7.50 in the test with 32D cl 3 cells (setting [1]); 10.35±0.33 with 32D cl 3 cells (24 hours (Flask), 10 μM); 18.49±3.90 in the test with 32D cl 3 cells (24 hours (Pellet), 10 μM). Further, in the test with 32D cl 3 cells (48 or 72 h after irradiation), the radiation mitigation entry was “no statistically significant radiation mitigation”.

In the case of `CC(C)C[C@@H](/C=C/[C@H](Cc1ccccc1)C(=O)N1CCC[C@H]1C(=O)N[C@H](C(=O)N[C@@H](CCCNC(=O)OCc1ccccc1)C(=O)NC1CC(C)(C)N([O])C(C)(C)C1)C(C)C)NC(=O)OC(C)(C)C` [XJB-5-131], in the test with Sprague Dawley rats, the “rats surviving longer than 3 hours after completion of the hemorrhage protocol” value is “Three of the six” and the “rats surviving the whole 6 hour post-bleeding observation period” value was “one rat”. In addition, the “survival time versus vehicle” value in the test on Sprague Dawley rats (no resuscitation) was “survived significantly longer”.
